# Assays:
# Assay type in all cases: functional
# UACC-257 [1] = experiment: Growth inhibition of human UACC257 cells assessed as cell growth at 0.01 uM incubated for 48 hrs by sulforhodamine B assay relative to control; settings: UACC-257, 48 h, read-out: Activity
# IGROV-1 [2] = experiment: Growth inhibition of human IGROV1 cells incubated for 48 hrs by sulforhodamine B assay; settings: IGROV-1, 48 h
# 786-0 [3] = experiment: Growth inhibition of human 786-0 cells assessed as cell growth at 100 uM incubated for 48 hrs by sulforhodamine B assay relative to control; settings: 786-0, 48 h, read-out: Activity
# CAKI-1 [4] = experiment: Growth inhibition of human Caki1 cells assessed as cell growth at 0.01 uM incubated for 48 hrs by sulforhodamine B assay relative to control; settings: CAKI-1, 48 h, read-out: Activity
# UACC-62 = experiment: Growth inhibition of human UACC62 cells incubated for 48 hrs by sulforhodamine B assay; settings: UACC-62, 48 h
# ACHN [5] = experiment: Growth inhibition of human ACHN cells assessed as cell growth at 0.1 uM incubated for 48 hrs by sulforhodamine B assay relative to control; settings: read-out: Activity
# CCRF-CEM [6] = experiment: Growth inhibition of human CCRF-CEM cells assessed as cell growth at 1 uM incubated for 48 hrs by sulforhodamine B assay relative to control; settings: read-out: Activity
# HOP-92 = experiment: Growth inhibition of human HOP92 cells assessed as cell growth at 0.01 uM incubated for 48 hrs by sulforhodamine B assay relative to control; settings: HOP-92, 48 h, read-out: Activity
# UACC-257 [7] = experiment: Growth inhibition of human UACC257 cells assessed as cell growth at 0.1 uM incubated for 48 hrs by sulforhodamine B assay relative to control; settings: UACC-257, 48 h, read-out: Activity
# NCI-H522 [8] = experiment: Growth inhibition of human NCI-H522 cells incubated for 48 hrs by sulforhodamine B assay; settings: NCI-H522, 48 h
# SK-MEL-5 = experiment: Growth inhibition of human SK-MEL-5 cells assessed as cell growth at 1 uM incubated for 48 hrs by sulforhodamine B assay relative to control; settings: SK-MEL-5, 48 h, read-out: Activity
# CAKI-1 [9] = experiment: Growth inhibition of human Caki1 cells assessed as cell growth at 0.1 uM incubated for 48 hrs by sulforhodamine B assay relative to control; settings: CAKI-1, 48 h, read-out: Activity
# BT-549 = experiment: Growth inhibition of human BT549 cells assessed as cell growth at 100 uM incubated for 48 hrs by sulforhodamine B assay relative to control; settings: BT-549, 48 h, read-out: Activity
# PC-3 = experiment: Growth inhibition of human PC3 cells assessed as cell growth at 0.1 uM incubated for 48 hrs by sulforhodamine B assay relative to control; settings: PC-3, 48 h, read-out: Activity
# NCI-H226 = experiment: Growth inhibition of human NCI-H226 cells assessed as cell growth at 0.1 uM incubated for 48 hrs by sulforhodamine B assay relative to control; settings: NCI-H226, 48 h, read-out: Activity
# IGROV-1 [10] = experiment: Growth inhibition of human IGROV1 cells assessed as cell growth at 1 uM incubated for 48 hrs by sulforhodamine B assay relative to control; settings: IGROV-1, 48 h, read-out: Activity
# NCI-H460 = experiment: Growth inhibition of human NCI-H460 cells assessed as cell growth at 1 uM incubated for 48 hrs by sulforhodamine B assay relative to control; settings: NCI-H460, 48 h, read-out: Activity
# 786-0 [11] = experiment: Growth inhibition of human 786-0 cells incubated for 48 hrs by sulforhodamine B assay; settings: 786-0, 48 h
# HOP-62 = experiment: Growth inhibition of human HOP62 cells assessed as cell growth at 0.1 uM incubated for 48 hrs by sulforhodamine B assay relative to control; settings: HOP-62, 48 h, read-out: Activity
# ACHN [12] = experiment: Growth inhibition of human ACHN cells assessed as cell growth at 1 uM incubated for 48 hrs by sulforhodamine B assay relative to control; settings: read-out: Activity
# HL-60(TB) = experiment: Growth inhibition of human HL-60(TB) cells assessed as cell growth at 0.01 uM incubated for 48 hrs by sulforhodamine B assay relative to control; settings: HL-60, 48 h, read-out: Activity
# M14 = experiment: Growth inhibition of human M14 cells assessed as cell growth at 100 uM incubated for 48 hrs by sulforhodamine B assay relative to control; settings: M14, 48 h, read-out: Activity
# SF-539 = experiment: Growth inhibition of human SF539 cells assessed as cell growth at 0.1 uM incubated for 48 hrs by sulforhodamine B assay relative to control; settings: SF-539, 48 h, read-out: Activity
# SW-620 [13] = experiment: Growth inhibition of human SW620 cells assessed as cell growth at 100 uM incubated for 48 hrs by sulforhodamine B assay relative to control; settings: SW-620, 48 h, read-out: Activity
# SW-620 [14] = experiment: Growth inhibition of human SW620 cells assessed as cell growth at 0.01 uM incubated for 48 hrs by sulforhodamine B assay relative to control; settings: SW-620, 48 h, read-out: Activity
# CAKI-1 [15] = experiment: Growth inhibition of human Caki1 cells incubated for 48 hrs by sulforhodamine B assay; settings: CAKI-1, 48 h
# NCI-H522 [16] = experiment: Growth inhibition of human NCI-H522 cells assessed as cell growth at 1 uM incubated for 48 hrs by sulforhodamine B assay relative to control; settings: NCI-H522, 48 h, read-out: Activity
# 786-0 [17] = experiment: Growth inhibition of human 786-0 cells assessed as cell growth at 0.1 uM incubated for 48 hrs by sulforhodamine B assay relative to control; settings: 786-0, 48 h, read-out: Activity
# Malme-3M = experiment: Growth inhibition of human MALME-3M cells assessed as cell growth at 0.1 uM incubated for 48 hrs by sulforhodamine B assay relative to control; settings: read-out: Activity
# SR = experiment: Growth inhibition of human SR cells assessed as cell growth at 100 uM incubated for 48 hrs by sulforhodamine B assay relative to control; settings: read-out: Activity
# MDA-MB-435 = experiment: Growth inhibition of human MDA-MB-435 cells assessed as cell growth at 100 uM incubated for 48 hrs by sulforhodamine B assay relative to control; settings: MDA-MB-435, 48 h, read-out: Activity
# CCRF-CEM [18] = experiment: Growth inhibition of human CCRF-CEM cells assessed as cell growth at 0.01 uM incubated for 48 hrs by sulforhodamine B assay relative to control; settings: read-out: Activity
# [19] = read-out: LC50 (the source's name)
# [20] = read-out: pLC50 (the source's name) (converted)
compound,measurement,setting,value
c1ccc2c3c([nH]c2c1)C(c1ccc(C2NCCc4c2[nH]c2ccccc42)cc1)NCC3 (racemic),growth at 0.01 µM,UACC-257 [1],101%
same,GI50,IGROV-1 [2]; read-out: GI50,1.34 µM
same,CC50,IGROV-1 [2]; [19],5.99 µM
same,TGI,IGROV-1 [2]; read-out: TGI,2850 nM
same,GI50,IGROV-1 [2]; read-out: pGI50 (converted),1.35 µM
same,CC50,IGROV-1 [2]; [20],6.03 µM
same,TGI,IGROV-1 [2]; read-out: pTGI (converted),2820 nM
same,growth at 100 µM,786-0 [3],-85%
same,growth at 0.01 µM,CAKI-1 [4],90%
same,CC50,UACC-62; [19],5.15 µM
same,GI50,UACC-62; read-out: pGI50 (converted),741 nM
same,CC50,UACC-62; [20],5.13 µM
same,TGI,UACC-62; read-out: pTGI (converted),2.14 µM
same,growth at 0.1 µM,ACHN [5],97%
same,growth at 1 µM,CCRF-CEM [6],21%
same,growth at 0.01 µM,HOP-92,86%
same,growth at 0.1 µM,UACC-257 [7],104%
same,CC50,NCI-H522 [8]; [19],5.21 µM
same,GI50,NCI-H522 [8]; read-out: pGI50 (converted),417 nM
same,CC50,NCI-H522 [8]; [20],5.25 µM
same,TGI,NCI-H522 [8]; read-out: pTGI (converted),1.48 µM
same,growth at 1 µM,SK-MEL-5,94%
same,growth at 0.1 µM,CAKI-1 [9],93%
same,growth at 100 µM,BT-549,-90%
same,growth at 0.1 µM,PC-3,94%
same,growth at 0.1 µM,NCI-H226,95%
same,growth at 1 µM,IGROV-1 [10],70%
same,growth at 1 µM,NCI-H460,56%
same,GI50,786-0 [11]; read-out: GI50,1740 nM
same,CC50,786-0 [11]; [19],6.54 µM
same,TGI,786-0 [11]; read-out: TGI,3.38 µM
same,GI50,786-0 [11]; read-out: pGI50 (converted),1740 nM
same,CC50,786-0 [11]; [20],6.61 µM
same,TGI,786-0 [11]; read-out: pTGI (converted),3.39 µM
same,growth at 0.1 µM,HOP-62,85%
same,growth at 1 µM,ACHN [12],42%
same,growth at 0.01 µM,HL-60(TB),109%
same,growth at 100 µM,M14,95%
same,growth at 0.1 µM,SF-539,95%
same,growth at 100 µM,SW-620 [13],87%
same,growth at 0.01 µM,SW-620 [14],101%
same,GI50,CAKI-1 [15]; read-out: GI50,1660 nM
same,CC50,CAKI-1 [15]; [19],9.82 µM
same,TGI,CAKI-1 [15]; read-out: TGI,4.03 µM
same,GI50,CAKI-1 [15]; read-out: pGI50 (converted),1660 nM
same,CC50,CAKI-1 [15]; [20],9.77 µM
same,TGI,CAKI-1 [15]; read-out: pTGI (converted),4.07 µM
same,growth at 1 µM,NCI-H522 [16],16%
same,growth at 0.1 µM,786-0 [17],103%
same,growth at 0.1 µM,Malme-3M,89%
same,growth at 100 µM,SR,-68%
same,growth at 100 µM,MDA-MB-435,97%
same,growth at 0.01 µM,CCRF-CEM [18],98%
c1ccc2[nH]c(-c3ccc(-c4nccc5c4[nH]c4ccccc45)cc3)nc2c1,growth at 0.01 µM,UACC-257 [1],93%
same,GI50,IGROV-1 [2]; read-out: GI50,4.73 µM
same,CC50,IGROV-1 [2]; [19],> 1 µM
same,GI50,IGROV-1 [2]; read-out: pGI50 (converted),4.68 µM
same,CC50,IGROV-1 [2]; [20],> 100 µM
same,TGI,IGROV-1 [2]; read-out: pTGI (converted),22400 nM
same,growth at 100 µM,786-0 [3],70%
same,growth at 0.01 µM,CAKI-1 [4],91%
same,GI50,UACC-62; read-out: GI50,1600 nM
same,CC50,UACC-62; [19],7.62 µM
same,TGI,UACC-62; read-out: TGI,3.49 µM
same,GI50,UACC-62; read-out: pGI50 (converted),1580 nM
same,CC50,UACC-62; [20],7.59 µM
same,TGI,UACC-62; read-out: pTGI (converted),3.47 µM
same,growth at 0.1 µM,ACHN [5],98%
same,growth at 1 µM,CCRF-CEM [6],103%
same,growth at 0.01 µM,HOP-92,85%
same,growth at 0.1 µM,UACC-257 [7],103%
same,GI50,NCI-H522 [8]; read-out: GI50,2060 nM
same,CC50,NCI-H522 [8]; [19],> 1 µM
same,TGI,NCI-H522 [8]; read-out: TGI,5.04 µM
same,GI50,NCI-H522 [8]; read-out: pGI50 (converted),2040 nM
same,CC50,NCI-H522 [8]; [20],> 100 µM
same,TGI,NCI-H522 [8]; read-out: pTGI (converted),5.01 µM
same,growth at 1 µM,SK-MEL-5,94%
same,growth at 0.1 µM,CAKI-1 [9],96%
same,growth at 100 µM,BT-549,43%
same,growth at 0.1 µM,PC-3,100%
same,growth at 0.1 µM,NCI-H226,104%
same,growth at 1 µM,IGROV-1 [10],102%
same,growth at 1 µM,NCI-H460,97%
same,GI50,786-0 [11]; read-out: GI50,2240 nM
same,CC50,786-0 [11]; [19],3.83 µM
same,TGI,786-0 [11]; read-out: TGI,6.3 µM
same,GI50,786-0 [11]; read-out: pGI50 (converted),2240 nM
same,CC50,786-0 [11]; [20],38 µM
same,TGI,786-0 [11]; read-out: pTGI (converted),6.31 µM
same,growth at 0.1 µM,HOP-62,89%
same,growth at 1 µM,ACHN [12],101%
same,growth at 0.01 µM,HL-60(TB),95%
same,growth at 100 µM,M14,76%
same,growth at 0.1 µM,SF-539,98%
same,growth at 100 µM,SW-620 [13],33%
same,growth at 0.01 µM,SW-620 [14],103%
same,GI50,CAKI-1 [15]; read-out: GI50,2410 nM
same,CC50,CAKI-1 [15]; [19],3.68 µM
same,TGI,CAKI-1 [15]; read-out: TGI,7.11 µM
same,GI50,CAKI-1 [15]; read-out: pGI50 (converted),2400 nM
same,CC50,CAKI-1 [15]; [20],37.2 µM
same,TGI,CAKI-1 [15]; read-out: pTGI (converted),7.08 µM
same,growth at 1 µM,NCI-H522 [16],91%
same,growth at 0.1 µM,786-0 [17],92%
same,growth at 0.1 µM,Malme-3M,94%
same,growth at 100 µM,SR,34%
same,growth at 100 µM,MDA-MB-435,67%
same,growth at 0.01 µM,CCRF-CEM [18],102%
